Test results from patent US6737383B1, “Herbicidal oxadiazolidines” (priority 1999, dated 2004).

Experiments:
rape = assay: Test B pre/postemergence rape; type: in vivo, Brassica napus
Procedure, shortened: (§1)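 Herbicidal effect was estimated by eye on a ten-point control scale after plants spent twelve to sixteen days in a greenhouse following soil or foliar treatment. Foliar sprays targeted plants at one to four leaves; all doses were formulated in a non-phytotoxic solvent with surfactant.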

sugar beet = assay: Test B pre/postemergence sugar beet; type: in vivo, Beta vulgaris
Procedure, shortened: as §1

purple nutsedge = assay: Test B pre/postemergence purple nutsedge; type: in vivo, Cyperus rotundus
Procedure, shortened: as §1

duck salad = assay: Test B flood test duck salad; type: in vivo, Heteranthera limosa; settings: for Plant response rating, Ducksalad (0 to 10 scale, 0 is no effect, 10 is complete control) / Ducksalad plant response rating (0 to 10 scale, 0 is no effect, 10 is complete control): visual evaluation after twelve to sixteen days; for Ducksalad plant response rating (0 to 10 scale, 0 is no effect, 10 is complete control): under heading Pre-emergence
Procedure, shortened: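 Plants were grown to the 2-leaf stage before treatment with test chemical, then held in a greenhouse for twelve to sixteen days. Injury was visually rated against untreated controls on a 0–10 scale, where 0 is no effect and 10 is complete control.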

[1] = Postemergence, Rate 62 g/ha, scale 0 to 10, 0 is no effect, 10 is complete control
[2] = Postemergence, Rate 250 g/ha, scale 0 to 10, 0 no effect, 10 complete control
[3] = Preemergence, Rate 62 g/ha, scale 0 to 10, 0 is no effect, 10 is complete control
[4] = Preemergence, Rate 125 g/ha, scale 0 to 10 (0 no effect, 10 complete control)
[5] = Preemergence, Rate 250 g/ha, scale of 0 to 10 where 0 is no effect and 10 is complete control
[6] = Preemergence, Rate 500 g/ha, scale 0 (no effect) to 10 (complete control)
[7] = Rate 125 g/ha, Postemergence, scale 0 to 10, 0 no effect, 10 complete control
[8] = Rate 500 g/ha, Postemergence, scale 0 to 10, 0 no effect, 10 complete control
[9] = Rate 250 g/ha, headed Pre-emergence (flood test species), scale 0 to 10 (0 no effect, 10 complete control)
[10] = Rate 500 g/ha, headed Pre-emergence (flood test species), scale 0 to 10 (0 no effect, 10 complete control)
[11] = Rate 1000 g/ha, Pre-emergence (as headed), scale 0 to 10
[12] = Rate 2000 g/ha, Pre-emergence (as headed), scale 0 to 10
[13] = Postemergence, Rate 125 g/ha, scale of 0 to 10 where 0 is no effect and 10 is complete control
[14] = Preemergence, Rate 62 g/ha, scale of 0 to 10 where 0 is no effect and 10 is complete control
[15] = Preemergence, Rate 125 g/ha, scale of 0 to 10 where 0 is no effect and 10 is complete control
[16] = Preemergence, Rate 250 g/ha, scale 0 to 10 (0 no effect, 10 complete control)
[17] = Preemergence, Rate 500 g/ha, scale of 0 to 10 where 0 is no effect and 10 is complete control
[18] = Rate 500 g/ha, Postemergence, scale 0 to 10, 0 is no effect, 10 is complete control
[19] = Rate 62 g/ha, flood test species, Pre-emergence
[20] = Rate 125 g/ha, flood test species
[21] = Postemergence, Rate 125 g/ha, scale 0 to 10, 0 is no effect, 10 is complete control
[22] = Postemergence, Rate 250 g/ha, scale 0 to 10, 0 is no effect, 10 is complete control
[23] = Preemergence, Rate 62 g/ha, scale 0 to 10 (0 no effect, 10 complete control)
[24] = Rate 62 g/ha, Postemergence, scale of 0 to 10 where 0 is no effect and 10 is complete control
[25] = Rate 250 g/ha, Pre-emergence, flood-test species, scale 0 to 10, 0 is no effect, 10 is complete control
[26] = Rate 500 g/ha, Pre-emergence, flood test species, scale 0 to 10 (0 no effect, 10 complete control)
[27] = Preemergence, Rate 125 g/ha, 0 is no effect, 10 is complete control
[28] = Preemergence, Rate 250 g/ha, scale 0 to 10, 0 is no effect, 10 is complete control
[29] = Preemergence, Rate 500 g/ha, scale 0 to 10 (0 no effect, 10 complete control)
[30] = Rate 250 g/ha, Postemergence, scale 0 to 10, 0 is no effect, 10 is complete control

Cc1cccc(C)c1-n1c(=O)on(C(=O)N(c2ccc(Cl)cc2)C(C)C)c1=O [Compound 47]
Rape plant response rating (rape; [1]): 0 | Rape plant response rating (rape; [2]): 0 | Plant response rating, Rape (rape; [3]): 0 | Plant response rating, Rape (rape; [4]): 0 | Plant response rating, Rape (rape; [5]): 0 | Rape plant response rating (rape; [6]): 0 | Rape plant response rating (rape; [7]): 0 | Rape plant response rating (rape; [8]): 0 | Sugarbeets plant response rating (sugar beet; [1]): 0 | Sugarbeets plant response rating (sugar beet; [2]): 0 | Plant response rating, Sugarbeets (sugar beet; [3]): 0 | Plant response rating, Sugarbeets (sugar beet; [4]): 0 | Plant response rating, Sugarbeets (sugar beet; [5]): 0 | Sugarbeets plant response rating (sugar beet; [6]): 0 | Sugarbeets plant response rating (sugar beet; [7]): 0 | Sugarbeets plant response rating (sugar beet; [8]): 0 | Nutsedge plant response rating (purple nutsedge; [1]): 0 | Nutsedge plant response rating (purple nutsedge; [2]): 0 | Plant response rating, Nutsedge (purple nutsedge; [4]): 0 | Plant response rating, Nutsedge (purple nutsedge; [5]): 0 | Nutsedge plant response rating (purple nutsedge; [7]): 0 | Nutsedge plant response rating (purple nutsedge; [8]): 0 | Ducksalad plant response rating (duck salad; Rate 125 g/ha, Postemergence section (flood test species), scale 0 to 10, 0 no effect, 10 complete control): 0 | Ducksalad plant response rating (duck salad; Rate 125 g/ha, Pre-emergence, flood test species, scale 0 to 10 where 0 is no effect and 10 is complete control): 0 | Ducksalad plant response rating (duck salad; [9]): 0 | Plant response rating, Ducksalad (duck salad; [10]): 0 | Ducksalad plant response rating (duck salad; [11]): 3 | Ducksalad plant response rating (duck salad; [12]): 0

C#CC(C)n1c(=O)on(C(=O)N(c2ccc(Cl)cc2)C(C)C)c1=O (racemic) [Compound 658]
Plant response rating, Rape (rape; [1]): 0 | Rape plant response rating (rape; [13]): 0 | Rape plant response rating (rape; [14]): 2 | Rape plant response rating (rape; [15]): 5 | Plant response rating, Rape (rape; [16]): 5 | Plant response rating, Rape (rape; [17]): 8 | Rape plant response rating (rape; [18]): 3 | Plant response rating, Sugarbeets (sugar beet; [1]): 0 | Sugarbeets plant response rating (sugar beet; [13]): 0 | Sugarbeets plant response rating (sugar beet; [14]): 3 | Sugarbeets plant response rating (sugar beet; [15]): 7 | Plant response rating, Sugarbeets (sugar beet; [16]): 6 | Plant response rating, Sugarbeets (sugar beet; [17]): 7 | Sugarbeets plant response rating (sugar beet; [18]): 2 | Plant response rating, Nutsedge (purple nutsedge; [1]): 0 | Nutsedge plant response rating (purple nutsedge; [13]): 0 | Nutsedge plant response rating (purple nutsedge; [14]): 0 | Nutsedge plant response rating (purple nutsedge; [15]): 0 | Plant response rating, Nutsedge (purple nutsedge; [16]): 0 | Plant response rating, Nutsedge (purple nutsedge; [17]): 2 | Nutsedge plant response rating (purple nutsedge; [18]): 2 | Plant response rating, Ducksalad (0 to 10 scale, 0 is no effect, 10 is complete control) (duck salad; [19]): 0 | Ducksalad plant response rating (0 to 10 scale, 0 is no effect, 10 is complete control) (duck salad; [20]): 0 | Ducksalad plant response rating (duck salad; Rate 250 g/ha, Pre-emergence (flood test species), scale 0 to 10, 0 is no effect, 10 is complete control): 0 | Ducksalad plant response rating (duck salad; Rate 500 g/ha, Pre-emergence section of Table B, 0 to 10 scale (0 no effect, 10 complete control)): 0

Cc1nnsc1Cn1c(=O)on(C(=O)N(c2ccc(F)cc2)C(C)C)c1=O [Compound 380]
Plant response rating, Rape (rape; [21]): 0 | Plant response rating, Rape (rape; [22]): 0 | Plant response rating, Rape (rape; [23]): 0 | Rape plant response rating (0 to 10 scale) (rape; Preemergence, Rate 125 g/ha): 0 | Rape plant response rating (rape; [5]): 0 | Rape plant response rating (rape; [17]): 0 | Rape plant response rating (rape; [24]): 0 | Plant response rating, Rape (rape; [8]): 0 | Plant response rating, Sugarbeets (sugar beet; [21]): 0 | Plant response rating, Sugarbeets (sugar beet; [22]): 0 | Plant response rating, Sugarbeets (sugar beet; [23]): 0 | Sugarbeets plant response rating (0 to 10 scale) (sugar beet; Preemergence, Rate 125 g/ha): 0 | Sugarbeets plant response rating (sugar beet; [5]): 0 | Sugarbeets plant response rating (sugar beet; [17]): 0 | Sugarbeets plant response rating (sugar beet; [24]): 0 | Plant response rating, Sugarbeets (sugar beet; [8]): 0 | Plant response rating, Nutsedge (purple nutsedge; [21]): 0 | Plant response rating, Nutsedge (purple nutsedge; [22]): 0 | Plant response rating, Nutsedge (purple nutsedge; [23]): 0 | Nutsedge plant response rating (0 to 10 scale) (purple nutsedge; Preemergence, Rate 125 g/ha): 0 | Nutsedge plant response rating (purple nutsedge; [5]): 0 | Nutsedge plant response rating (purple nutsedge; [17]): 0 | Nutsedge plant response rating (purple nutsedge; [24]): 0 | Plant response rating, Nutsedge (purple nutsedge; [8]): 0 | Plant response rating, Ducksalad (0 to 10 scale, 0 is no effect, 10 is complete control) (duck salad; [19]): 0 | Ducksalad plant response rating (0 to 10 scale, 0 is no effect, 10 is complete control) (duck salad; [20]): 0 | Ducksalad plant response rating (duck salad; [25]): 0 | Ducksalad plant response rating (duck salad; [26]): 0

Cc1nsc(Cl)c1Cn1c(=O)on(C(=O)N(c2ccccc2)C(C)C)c1=O [Compound 374]
Plant response rating, Rape (rape; [21]): 2 | Plant response rating, Rape (rape; [22]): 2 | Plant response rating, Rape (rape; [23]): 0 | Rape plant response rating (0 to 10 scale) (rape; Preemergence, Rate 125 g/ha): 0 | Rape plant response rating (rape; [5]): 2 | Rape plant response rating (rape; [17]): 7 | Rape plant response rating (rape; [24]): 0 | Plant response rating, Rape (rape; [8]): 7 | Plant response rating, Sugarbeets (sugar beet; [21]): 0 | Plant response rating, Sugarbeets (sugar beet; [22]): 0 | Plant response rating, Sugarbeets (sugar beet; [23]): 0 | Sugarbeets plant response rating (0 to 10 scale) (sugar beet; Preemergence, Rate 125 g/ha): 0 | Sugarbeets plant response rating (sugar beet; [5]): 0 | Sugarbeets plant response rating (sugar beet; [17]): 4 | Sugarbeets plant response rating (sugar beet; [24]): 0 | Plant response rating, Sugarbeets (sugar beet; [8]): 4 | Plant response rating, Nutsedge (purple nutsedge; [21]): 0 | Plant response rating, Nutsedge (purple nutsedge; [22]): 0 | Plant response rating, Nutsedge (purple nutsedge; [23]): 0 | Nutsedge plant response rating (0 to 10 scale) (purple nutsedge; Preemergence, Rate 125 g/ha): 0 | Nutsedge plant response rating (purple nutsedge; [5]): 0 | Nutsedge plant response rating (purple nutsedge; [17]): 0 | Nutsedge plant response rating (purple nutsedge; [24]): 0 | Plant response rating, Nutsedge (purple nutsedge; [8]): 0 | Plant response rating, Ducksalad (0 to 10 scale, 0 is no effect, 10 is complete control) (duck salad; [19]): 0 | Ducksalad plant response rating (0 to 10 scale, 0 is no effect, 10 is complete control) (duck salad; [20]): 0 | Ducksalad plant response rating (duck salad; [25]): 0 | Ducksalad plant response rating (duck salad; [26]): 0

CC(C)N(C(=O)n1oc(=O)n(-c2ccnn2C)c1=O)c1ccc(F)cc1 [Compound 124]
Rape plant response rating (rape; [13]): 0 | Rape plant response rating (rape; [23]): 0 | Rape plant response rating (0 to 10 scale) (rape; [27]): 0 | Rape plant response rating (rape; [28]): 0 | Rape plant response rating (rape; [29]): 0 | Rape plant response rating (rape; [24]): 0 | Plant response rating, Rape (rape; [30]): 0 | Rape plant response rating (rape; [8]): 0 | Sugarbeets plant response rating (sugar beet; [13]): 0 | Sugarbeets plant response rating (sugar beet; [23]): 0 | Sugarbeets plant response rating (0 to 10 scale) (sugar beet; [27]): 0 | Sugarbeets plant response rating (sugar beet; [28]): 0 | Sugarbeets plant response rating (sugar beet; [29]): 0 | Sugarbeets plant response rating (sugar beet; [24]): 0 | Plant response rating, Sugarbeets (sugar beet; [30]): 0 | Sugarbeets plant response rating (sugar beet; [8]): 0 | Nutsedge plant response rating (purple nutsedge; [13]): 0 | Nutsedge plant response rating (purple nutsedge; [23]): 0 | Nutsedge plant response rating (0 to 10 scale) (purple nutsedge; [27]): 0 | Nutsedge plant response rating (purple nutsedge; [28]): 0 | Nutsedge plant response rating (purple nutsedge; [29]): 0 | Nutsedge plant response rating (purple nutsedge; [24]): 0 | Plant response rating, Nutsedge (purple nutsedge; [30]): 0 | Nutsedge plant response rating (purple nutsedge; [8]): 0 | Ducksalad plant response rating (duck salad; Postemergence (flood test species), Rate 125 g/ha, scale of 0 to 10 where 0 is no effect and 10 is complete control): 0 | Ducksalad plant response rating (duck salad; Rate 62 g/ha, Postemergence section, flood test species, scale of 0 to 10 where 0 is no effect and 10 is complete control): 0 | Plant response rating, Ducksalad (duck salad; Rate 250 g/ha, Postemergence (flood test), scale 0 to 10, 0 is no effect, 10 is complete control): 0 | Ducksalad plant response rating (duck salad; [9]): 0 | Plant response rating, Ducksalad (duck salad; [10]): 0 | Ducksalad plant response rating (duck salad; Rate 500 g/ha, listed under Postemergence (flood test species), scale 0 to 10, 0 no effect, 10 complete control): 0 | Ducksalad plant response rating (duck salad; [11]): 0 | Ducksalad plant response rating (duck salad; [12]): 0
